Experimental data published in patent publication US11179347B2, “Hydrocarbon oil for a therapeutic use” (TOTAL MARKETING SERVICES, priority 2017, dated 2021).
Marks after values point to notes of the source that are not given here.

Assays:
HaCaT cells [1] = assay: Production of reactive oxygen species in HaCat cells incubated with oil then preservative (POE or MIT); format: cell-based
Experimental: Preservatives, used as an additive in pharmaceutical compositions, were evaluated. The preservatives evaluated are phenoxyethanol (POE) and methylisothiazolinone (MIT).
For this test, the HaCat cells are incubated with the oils A or B (for example for 15 minutes for the test with POE) then with the preservative POE or MIT (for example for 30 minutes with a solution of phenoxyethanol at 250 μg/mL).

HaCaT cells [2] = assay: Condensation of the chromatin, HOECHST 33342 test, HaCat cells with or without benzalkonium chloride; format: cell-based; settings: one hour with oil or CM, then 20 minutes benzalkonium chloride (BAC) 8 ppm by weight
Experimental: The following standards and methods were used to measure the properties hereinabove: • flash point: EN ISO 2719 • density at 15° C.: EN ISO 1185 • viscosity at 40° C.: EN ISO 3104 • aniline point: EN ISO 2977 • boiling point: ASTM D86 • biodegradability: OECD method 306 • refractive index at 20° C.: ASTM D 1218 • vapour pressure: calculated according to methods well known to those skilled in the art Tests on the Cellular Effects Preparation of the Tests: • Preparation of the microplates: 24 hours before the incubation with the oils A and B, the HaCaT cells are inoculated with a cell density of 100,000 cells/ml in 96-well microplates (Corning). The microplates are then placed in the incubator at 37° C. In a microplate, each condition was tested at least three times. Each experiment was carried out at least three times independently in order to validate the reproducibility of the results and to carry out statistical analyses. • Incubation of cells with the oils A or B: two durations of incubation were selected for the products to be tested pure: an incubation for fifteen minutes and an incubation for one hour. […]
The measurement of the condensation of the chromatin expressed as a percentage relative to the culture medium (CM) is indicated in table 3 hereinbelow.

Cn1sccc1=O [MIT, methylisothiazolinone]
Production of reactive oxygen species (% relative to the CM) (HaCaT cells [1]; with preservative methylisothiazolinone (MIT), after incubation with oil or CM): 135 % relative to the CM

benzalkonium chloride [CM + BAC]
Measurement of the condensation of the chromatin (% relative to the CM) (HaCaT cells [2]): 138*** % relative to the CM

phenoxyethanol [CM + POE]
Production of reactive oxygen species (% relative to the CM) (HaCaT cells [1]; with preservative phenoxyethanol (POE) 250 μg/mL 30 minutes, after 15 minutes with oil or CM): 132 % relative to the CM
